Measured values published in PubChem BioAssay (NCI).
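How tested: cells in 96-well plates exposed to compound for 48 hours at five concentrations. Here, GI50 denotes the concentration required for 50% inhibition of growth. TGI: concentration producing complete growth inhibition.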

Assays:
Experiment in all cases: NCI anticancer screen, dose series, 48 h
786-0 renal = tested on: 786-0 renal
A498 renal = tested on: A498 renal
A549 NSCLC = tested on: A549 NSCLC
ACHN renal = tested on: ACHN renal
BT-549 breast = tested on: BT-549 breast
CAKI-1 renal = tested on: CAKI-1 renal
CCRF-CEM leukemia = tested on: CCRF-CEM leukemia
COLO 205 colon = tested on: COLO 205 colon
DU-145 prostate = tested on: DU-145 prostate
EKVX NSCLC = tested on: EKVX NSCLC
HCC-2998 colon = tested on: HCC-2998 colon
HCT-116 colon = tested on: HCT-116 colon
HCT-15 colon = tested on: HCT-15 colon
HL-60(TB) leukemia = tested on: HL-60(TB) leukemia
HOP-62 NSCLC = tested on: HOP-62 NSCLC
HOP-92 NSCLC = tested on: HOP-92 NSCLC
HS 578T breast = tested on: HS 578T breast
HT29 colon = tested on: HT29 colon
IGROV1 ovarian = tested on: IGROV1 ovarian
K-562 leukemia = tested on: K-562 leukemia
KM12 colon = tested on: KM12 colon
LOX IMVI melanoma = tested on: LOX IMVI melanoma
M14 melanoma = tested on: M14 melanoma
MALME-3M melanoma = tested on: MALME-3M melanoma
MCF7 breast = tested on: MCF7 breast
MDA-MB-435 = tested on: MDA-MB-435
MDA-MB-468 breast = tested on: MDA-MB-468 breast
MOLT-4 leukemia = tested on: MOLT-4 leukemia
NCI-H226 lung = tested on: NCI-H226 lung
NCI-H23 lung = tested on: NCI-H23 lung
NCI-H460 lung = tested on: NCI-H460 lung
NCI-H522 lung = tested on: NCI-H522 lung
NCI/ADR-RES ovarian = tested on: NCI/ADR-RES ovarian
OVCAR-3 ovarian = tested on: OVCAR-3 ovarian
OVCAR-4 ovarian = tested on: OVCAR-4 ovarian
OVCAR-5 ovarian = tested on: OVCAR-5 ovarian
OVCAR-8 ovarian = tested on: OVCAR-8 ovarian
PC-3 prostate = tested on: PC-3 prostate
RPMI-8226 leukemia = tested on: RPMI-8226 leukemia
RXF 393 renal = tested on: RXF 393 renal
SF-268 CNS = tested on: SF-268 CNS
SF-295 CNS = tested on: SF-295 CNS
SF-539 CNS = tested on: SF-539 CNS
SK-MEL-28 melanoma = tested on: SK-MEL-28 melanoma
SK-MEL-5 melanoma = tested on: SK-MEL-5 melanoma
SK-OV-3 ovarian = tested on: SK-OV-3 ovarian
SN12C renal = tested on: SN12C renal
SNB-19 CNS = tested on: SNB-19 CNS
SR leukemia = tested on: SR leukemia
SW-620 colon = tested on: SW-620 colon
T-47D breast = tested on: T-47D breast
TK-10 renal = tested on: TK-10 renal
U251 CNS = tested on: U251 CNS
UACC-257 melanoma = tested on: UACC-257 melanoma
UACC-62 melanoma = tested on: UACC-62 melanoma

SMILES: N#CC1=C(c2cccs2)Nc2c(c(-c3ccccc3)nn2-c2ccccc2)C12C(=O)Nc1ccc(Br)cc12 (stereo not given)
- GI50 (786-0 renal): 15.7 µM
- TGI (786-0 renal): 30.5 µM
- GI50 (A498 renal): 16.3 µM
- TGI (A498 renal): 30.7 µM
- GI50 (A549 NSCLC): 10.2 µM
- TGI (A549 NSCLC): 23 µM
- GI50 (ACHN renal): 11.9 µM
- TGI (ACHN renal): 24.8 µM
- GI50 (BT-549 breast): 5.22 µM
- TGI (BT-549 breast): 18.1 µM
- GI50 (CAKI-1 renal): 16.2 µM
- TGI (CAKI-1 renal): 37.5 µM
- GI50 (CCRF-CEM leukemia): 7.51 µM
- TGI (CCRF-CEM leukemia): 26.7 µM
- GI50 (COLO 205 colon): 16 µM
- TGI (COLO 205 colon): 29.9 µM
- GI50 (DU-145 prostate): 20.7 µM
- TGI (DU-145 prostate): 46.6 µM
- GI50 (EKVX NSCLC): 11.1 µM
- TGI (EKVX NSCLC): 27.4 µM
- GI50 (HCC-2998 colon): 13.9 µM
- TGI (HCC-2998 colon): 27 µM
- GI50 (HCT-116 colon): 12.1 µM
- TGI (HCT-116 colon): 24.7 µM
- GI50 (HCT-15 colon): 5.34 µM
- TGI (HCT-15 colon): 18.2 µM
- GI50 (HL-60(TB) leukemia): 8.84 µM
- TGI (HL-60(TB) leukemia): 26.8 µM
- GI50 (HOP-62 NSCLC): 15.4 µM
- TGI (HOP-62 NSCLC): 29.6 µM
- GI50 (HOP-92 NSCLC): 3.4 µM
- TGI (HOP-92 NSCLC): 15.4 µM
- GI50 (HS 578T breast): 12.7 µM
- TGI (HS 578T breast): 40.1 µM
- GI50 (HT29 colon): 15.2 µM
- TGI (HT29 colon): 29.1 µM
- GI50 (IGROV1 ovarian): 14.2 µM
- TGI (IGROV1 ovarian): 29.8 µM
- GI50 (K-562 leukemia): 7.53 µM
- TGI (K-562 leukemia): 23.6 µM
- GI50 (KM12 colon): 7.67 µM
- TGI (KM12 colon): 20.5 µM
- GI50 (LOX IMVI melanoma): 12.4 µM
- TGI (LOX IMVI melanoma): 24.9 µM
- GI50 (M14 melanoma): 14.4 µM
- TGI (M14 melanoma): 27.7 µM
- GI50 (MALME-3M melanoma): 14.5 µM
- TGI (MALME-3M melanoma): 27.8 µM
- GI50 (MCF7 breast): 13.6 µM
- TGI (MCF7 breast): 28.3 µM
- GI50 (MDA-MB-435): 17 µM
- TGI (MDA-MB-435): 33.7 µM
- GI50 (MDA-MB-468 breast): 12.9 µM
- TGI (MDA-MB-468 breast): 27 µM
- GI50 (MOLT-4 leukemia): 7.92 µM
- TGI (MOLT-4 leukemia): 24.1 µM
- GI50 (NCI-H226 lung): 15.4 µM
- TGI (NCI-H226 lung): 31.2 µM
- GI50 (NCI-H23 lung): 9.98 µM
- TGI (NCI-H23 lung): 21.8 µM
- GI50 (NCI-H460 lung): 11.2 µM
- TGI (NCI-H460 lung): 24.6 µM
- GI50 (NCI-H522 lung): 4.52 µM
- TGI (NCI-H522 lung): 17.1 µM
- GI50 (NCI/ADR-RES ovarian): 13.3 µM
- TGI (NCI/ADR-RES ovarian): 29.1 µM
- GI50 (OVCAR-3 ovarian): 15 µM
- TGI (OVCAR-3 ovarian): 29.4 µM
- GI50 (OVCAR-4 ovarian): 14.2 µM
- TGI (OVCAR-4 ovarian): 34.1 µM
- GI50 (OVCAR-5 ovarian): 16.5 µM
- TGI (OVCAR-5 ovarian): 33.1 µM
- GI50 (OVCAR-8 ovarian): 15.6 µM
- TGI (OVCAR-8 ovarian): 31 µM
- GI50 (PC-3 prostate): 6.37 µM
- TGI (PC-3 prostate): 22 µM
- GI50 (RPMI-8226 leukemia): 10.2 µM
- TGI (RPMI-8226 leukemia): 32.9 µM
- GI50 (RXF 393 renal): 10.2 µM
- TGI (RXF 393 renal): 22.2 µM
- GI50 (SF-268 CNS): 8.58 µM
- TGI (SF-268 CNS): 37.8 µM
- GI50 (SF-295 CNS): 12.5 µM
- TGI (SF-295 CNS): 25.6 µM
- GI50 (SF-539 CNS): 15.2 µM
- TGI (SF-539 CNS): 28.5 µM
- GI50 (SK-MEL-28 melanoma): 15.1 µM
- TGI (SK-MEL-28 melanoma): 28.4 µM
- GI50 (SK-MEL-5 melanoma): 16.6 µM
- TGI (SK-MEL-5 melanoma): 30.5 µM
- GI50 (SK-OV-3 ovarian): 14.2 µM
- TGI (SK-OV-3 ovarian): 28.6 µM
- GI50 (SN12C renal): 13.7 µM
- TGI (SN12C renal): 27.9 µM
- GI50 (SNB-19 CNS): 5.23 µM
- TGI (SNB-19 CNS): 27.9 µM
- GI50 (SR leukemia): 7.93 µM
- TGI (SR leukemia): 27.1 µM
- GI50 (SW-620 colon): 11.1 µM
- TGI (SW-620 colon): 26.5 µM
- GI50 (T-47D breast): 17.7 µM
- TGI (T-47D breast): 45 µM
- GI50 (TK-10 renal): 12.9 µM
- TGI (TK-10 renal): 36.7 µM
- GI50 (U251 CNS): 5.64 µM
- TGI (U251 CNS): 18.4 µM
- GI50 (UACC-257 melanoma): 15.6 µM
- TGI (UACC-257 melanoma): 30.9 µM
- GI50 (UACC-62 melanoma): 11.4 µM
- TGI (UACC-62 melanoma): 23.6 µM
